Test [1] has as its system N. gonorrhoeae ATCC 49226. Description: MIC assay for N. gonorrhoeae, broth microdilution in Todd-Hewitt (TH) broth. It is filed as cell-based. The note with it: Neisseria gonorrhoeae, ATCC49226; Antibacterial Activity against N. gonorrhoeae ATCC 49226 in TH. An excerpt:
MIC assays for N. gonorrhoeae were done using the ATCC 49226 strain. The procedure guidelines recommended by the Clinical and Laboratory Standards Institute (CLSI) for the broth microdilution MIC assay were modified by substituting […]. Also, the recommended bacterial inoculum was modified to meet the high inoculum demands needed for N. gonorrhoeae growth. A 96-well plate containing TH broth with 2-fold serial dilution of compounds was inoculated with log-phase bacterial at 2.5×10^7 CFU/mL. The final volume in each well was 200 μL. Each compound was tested in duplicate. The microtiter plates were incubated in an […] environment for 24 hours at 37° C. using the candle jar technique. Then the bacterial growth was tested by reading the plate with a SpectraMax iD5 plate reader (Molecular Devices, Inc.) at 600 nm. The MIC was defined as the lowest compound concentration that inhibited bacteria growth.
(In general: Broth dilution looks for growth in wells or tubes with falling amounts of substance.)

A further test has as its system P. mirabilis ATCC 29906. Description: MIC assay, CLSI broth microdilution in CAMH broth. The format is cell-based, Proteus mirabilis. The protocol: (§1) MIC assays for various Gram-negative and Gram-positive strains were conducted in accordance with the CLSI guidelines for broth microdilution. A 96-well plate containing CAMH broth with 2-fold serial dilution of compounds was inoculated with log-phase bacterial at 5×10^5 CFU/mL. The final volume in each well was 100 μL. Each compound was tested in duplicate. The microtiter plates were incubated in an aerobic environment for 18 hours at 37° C. Then the bacterial growth was tested by reading the plate with a SpectraMax iD5 plate reader (Molecular Devices, Inc.) at 600 nm. The MIC was defined as the lowest compound concentration that inhibited bacteria growth.
(§2) The following Gram-negative and Gram-positive strains were used in the aerobic MIC procedure: • P. aeruginosa ATCC 27853 • A. baumannii ATCC 19606 • E. coli ATCC 25922 • E. coli W4573 • E. coli N43 • K. pneumoniae ATCC 10031 • K. pneumoniae ATCC 13883 • S. sonnei ATCC 29930 • P. mirabilis ATCC 29906 • Methicillin-susceptible S. aureus (MSSA) ATCC 19636 • Methicillin-resistant S. aureus (MRSA) ATCC 33951

In test [2] the test system is Methicillin-resistant S. aureus (MRSA) ATCC 33591. Put plainly: MIC assay, CLSI broth microdilution in CAMH broth. The format is cell-based, Staphylococcus aureus. The procedure: as §1, with “growth. […]” for “growth.”
The subject of test [3] is Methicillin-susceptible S. aureus (MSSA) ATCC 19636. Description: MIC assay, CLSI broth microdilution in CAMH broth. The format is cell-based, Staphylococcus aureus. The procedure:
as §1, §2

Converted amounts (≈) assume the structure as drawn.

What is called MIC is the lowest concentration that inhibits growth of the organism. A higher MIC goes with weaker potency. The molecule `Nc1nc(N)c2ccc3c(ccn3Cc3ccccc3)c2n1` [Example 1, 7-benzyl-7H-pyrrolo[2,3-h]quinazoline-2,4-diamine] returned an MIC in test [1] of 8 µg/mL (≈ 27.6 µM). The same measure, in the same setting: the value for `N#Cc1ccc(Cn2ccc3c4nc(N)nc(N)c4ccc32)cc1` [Example 5, 4-((2,4-diamino-7H-pyrrolo[2,3-h]quinazolin-7-yl)methyl)benzonitrile] was 16 µg/mL (≈ 50.9 µM). In test [1], `Nc1nc(N)c2ccc3c(ccn3Cc3cccc(C(F)(F)F)c3)c2n1` [Example 8, 7-(3-(trifluoromethyl)benzyl)-7H-pyrrolo[2,3-h]quinazoline-2,4-diamine] yielded an MIC of 8 µg/mL (≈ 22.4 µM). Same read-out and setting: under `Nc1nc(N)c2ccc3c(ccn3Cc3ccc(OC(F)(F)F)cc3)c2n1` [Example 9, 7-(4-(trifluoromethoxy)benzyl)-7H-pyrrolo[2,3-h]quinazoline-2,4-diamine] stands 16 µg/mL (≈ 42.9 µM); under `CC(C)c1ccc(Cn2ccc3c4nc(N)nc(N)c4ccc32)cc1` [Example 10, 7-(4-isopropylbenzyl)-7H-pyrrolo[2,3-h]quinazoline-2,4-diamine], 4 µg/mL (≈ 12.1 µM).

Take `Nc1nc(N)c2ccc3c(ccn3Cc3ccc(C(F)(F)F)c(F)c3)c2n1` [Example 11, 7-(3-fluoro-4-(trifluoromethyl)benzyl)-7H-pyrrolo[2,3-h]quinazoline-2,4-diamine]: in test [1], the MIC was determined as 4 µg/mL (≈ 10.7 µM).

Consider `Nc1nc(N)c2ccc3c(ccn3Cc3cc(Cl)ccc3F)c2n1` [Example 12, 7-(5-chloro-2-fluorobenzyl)-7H-pyrrolo[2,3-h]quinazoline-2,4-diamine], for which the MIC in test [1] was 4 µg/mL (≈ 11.7 µM). On the same count and under the same terms, the value for `Nc1nc(N)c2ccc3c(ccn3Cc3cc(Cl)ccc3Cl)c2n1` [Example 13, 7-(2,5-dichlorobenzyl)-7H-pyrrolo[2,3-h]quinazoline-2,4-diamine] was 16 µg/mL (≈ 44.7 µM). Molecule `COc1cc(Cn2ccc3c4nc(N)nc(N)c4ccc32)cc(OC)c1` [Example 14, 7-(3,5-dimethoxybenzyl)-7H-pyrrolo[2,3-h]quinazoline-2,4-diamine] returned an MIC in test [1] above 64 µg/mL. As for `Nc1nc(N)c2ccc3c(ccn3Cc3ccc(Oc4ccccc4)cc3)c2n1` [Example 15, 7-(4-phenoxybenzyl)-7H-pyrrolo[2,3-h]quinazoline-2,4-diamine], 8 µg/mL (≈ 21 µM) was the least that counted as inhibitory in test [1] (MIC). For `Nc1nc(N)c2ccc3c(ccn3Cc3ccc(-c4ccccc4)cc3)c2n1` [Example 17, 7-([1,1′-biphenyl]-4-ylmethyl)-7H-pyrrolo[2,3-h]quinazoline-2,4-diamine], the MIC in test [1] is 8 µg/mL (≈ 21.9 µM). Same read-out and setting: the value for `Nc1nc(N)c2ccc3c(ccn3Cc3cccc(-c4ccccc4)c3)c2n1` [Example 18, 7-([1,1′-biphenyl]-3-ylmethyl)-7H-pyrrolo[2,3-h]quinazoline-2,4-diamine] was 16 µg/mL (≈ 43.8 µM); that for `N#Cc1ccccc1-c1ccc(Cn2ccc3c4nc(N)nc(N)c4ccc32)cc1` [Example 19, 4′-((2,4-diamino-7H-pyrrolo[2,3-h]quinazolin-7-yl)methyl)-[1,1′-biphenyl]-2-carbonitrile] was 0.25 µg/mL (≈ 0.64 µM); that for `COC(=O)c1ccc(-c2ccc(Cn3ccc4c5nc(N)nc(N)c5ccc43)cc2)cc1` [Example 20, methyl 4′-((2,4-diamino-7H-pyrrolo[2,3-h]quinazolin-7-yl)methyl)-[1,1′-biphenyl]-4-carboxylate] was above 32 µg/mL. In turn, `Nc1nc(N)c2ccc3c(ccn3Cc3ccc(Br)cn3)c2n1` [Example 22, 7-((5-bromopyridin-2-yl)methyl)-7H-pyrrolo[2,3-h]quinazoline-2,4-diamine] had an MIC in test [1] of 16 µg/mL (≈ 43.3 µM). Still for that read-out and setting: under `Cn1c(Cn2ccc3c4nc(N)nc(N)c4ccc32)nc2ccccc21` [Example 23, 7-((1-methyl-1H-benzo[d]midazole-2-yl)methyl)-7H-pyrrolo[2,3-h]quinazoline-2,4-diamine] stands above 64 µg/mL.

With `Nc1nc(N)c2ccc3c(ccn3Cc3nc(-c4ccccc4)cs3)c2n1` [Example 24, 7-((4-phenylthiazol-2-yl)methyl)-7H-pyrrolo[2,3-h]quinazoline-2,4-diamine], 4 µg/mL (≈ 10.7 µM) was the least that counted as inhibitory in test [1] (MIC).

In turn, `CC(C)=CCn1ccc2c3nc(N)nc(N)c3ccc21` [Example 25, 7-(3-methylbut-2-en-1-yl)-7H-pyrrolo[2,3-h]quinazoline-2,4-diamine] yielded an MIC in test [1] of 4 µg/mL (≈ 15 µM). The molecule `Nc1nc(N)c2ccc3c(ccn3CC3CC3)c2n1` [Example 28, 7-(cyclopropylmethyl)-7H-pyrrolo[2,3-h]quinazoline-2,4-diamine] registered an MIC in test [1] of 8 µg/mL (≈ 31.6 µM).

Take `Nc1nc(N)c2ccc3c(ccn3C(=O)c3ccccc3)c2n1` [Example 29, (2,4-diamino-7H-pyrrolo[2,3-h]quinazolin-7-yl)(phenyl)methanone]: in test [1], the lowest concentration to inhibit growth (MIC) was 32 µg/mL (≈ 105 µM). `Cc1cc2c3nc(N)nc(N)c3ccc2n1Cc1cccc(Br)c1` [Example 30, 7-(3-bromobenzyl)-8-methyl-7H-pyrrolo[2,3-h]quinazoline-2,4-diamine] had an MIC in test [1] of 16 µg/mL (≈ 41.9 µM). Still for that read-out and setting: the value for `Cc1cc2c3nc(N)nc(N)c3ccc2n1Cc1ccc(-c2ccccc2-c2nnn[nH]2)cc1` [Example 32, 7-((2′-(1H-tetrazol-5-yl)-[1,1′-biphenyl]-4-yl)methyl)-8-methyl-7H-pyrrolo[2,3-h]quinazoline-2,4-diamine] was above 64 µg/mL. In test [1], `Cc1cc2c3nc(N)nc(N)c3ccc2n1Cc1nc2ccccc2s1` [Example 33, 7-(benzo[d]thiazol-2-ylmethyl)-8-methyl-7H-pyrrolo[2,3-h]quinazoline-2,4-diamine] displayed an MIC of 8 µg/mL (≈ 22.2 µM).

For the molecule `N#Cc1ccccc1-c1ccc(Cn2ccc3c4nc(N)nc(N)c4ccc32)c(F)c1F` [Example 40, 4′-((2,4-diamino-7H-pyrrolo[2,3-h]quinazolin-7-yl)methyl)-2′,3′-difluoro-[1,1′-biphenyl]-2-carbonitrile], the entries for the “Intrinsic MIC in CAMH” value (in the test on P. mirabilis ATCC 29906; in test [2]; in test [3]) were >64¤, ≤0.063¤ and 0.25¤, respectively. Taken in the same sequence, the figures for `N#Cc1ccccc1-c1ccc(Cn2ccc3c4nc(N)nc(N)c4c(Br)cc32)cc1F` [Example 46, 4′-((2,4-diamino-5-bromo-7H-pyrrolo[2,3-h]quinazolin-7-yl)methyl)-2′-fluoro-[1,1′-biphenyl]-2-carbonitrile] were >64¤, 2¤ and 4¤. Taken in the same sequence, the figures for `Nc1nc(N)c2c(Br)cc3c(ccn3Cc3cccc(Br)c3)c2n1` [Example 47, 5-bromo-7-(3-bromobenzyl)-7H-pyrrolo[2,3-h]quinazoline-2,4-diamine] were 8¤, 4¤ and 4¤.

As to `Nc1nc(NCc2cccc(Br)c2)nc2c1c(Br)cc1c2ccn1Cc1cccc(Br)c1` [Example 48, 5-bromo-N^2,7-bis(3-bromobenzyl)-7H-pyrrolo[2,3-h]quinazoline-2,4-diamine], the “Intrinsic MIC in CAMH” value (with P. mirabilis ATCC 29906; in test [2]; in test [3]) was >64¤ in each case. Regarding `CN[C@H](CC(C)C)C(=O)N[C@H]1C(=O)N[C@@H](CC(N)=O)C(=O)N[C@H]2C(=O)N[C@H]3C(=O)N[C@H](C(=O)N[C@H](C(=O)O)c4cc(O)cc(O)c4-c4cc3ccc4O)[C@H](O)c3ccc(c(Cl)c3)Oc3cc2cc(c3O[C@@H]2O[C@H](CO)[C@@H](O)[C@H](O)[C@H]2O[C@H]2C[C@](C)(N)[C@H](O)[C@H](C)O2)Oc2ccc(cc2Cl)[C@H]1O` [VAN, reference compound], the “Intrinsic MIC in CAMH” value in test [2] and in test [3] was 2¤ throughout.
